Results: the supplement of paper PMC10307832

Legend:
Assay in all cases: relative viability (nuclei count vs DMSO), 5 days (fraction); higher = more cells survive
MLN4924 + Crizotinib = compound: NS(=O)(=O)OC[C@@H]1C[C@@H](n2ccc3c(N[C@H]4CCc5ccccc54)ncnc32)C[C@@H]1O [MLN4924] + C[C@@H](Oc1cc(-c2cnn(C3CCNCC3)c2)cnc1N)c1c(Cl)ccc(F)c1Cl [Crizotinib] (partner 1 µM)
Summary of the method: (§1)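 Dosing by pin tool came one day after lung cancer cell lines were seeded in 1536-well plates, using either one drug or a fixed anchor-drug dose plus five library-drug doses (not always all listed) in √10 steps. After 5 days, nuclei were counted on 4× images. Relative viability is treated-well nuclei count divided by vehicle-well nuclei count, and values are medians of duplicate plates.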

GSK126 + Tozasertib = compound: CC[C@H](C)N1C=C(C2=C(C=C(C=C21)C3=CN=C(C=C3)N4CCNCC4)C(=O)NCC5=C(C=C(NC5=O)C)C)C [GSK126] + Cc1cc(Nc2cc(N3CCN(C)CC3)nc(Sc3ccc(NC(=O)C4CC4)cc3)n2)n[nH]1 [Tozasertib] (partner 0.1 µM)
Summary of the method: as §1

Carboplatin + OSI-027 = compound: C1CC(C1)(C(=O)O)C(=O)O.[NH2-].[NH2-].[Pt+2] [Carboplatin] + COc1cccc2cc(-c3nc([C@H]4CC[C@H](C(=O)O)CC4)n4ncnc(N)c34)[nH]c12 [OSI-027] (partner 0.5 µM)
Summary of the method: as §1

MLN4924 + Vorinostat = compound: NS(=O)(=O)OC[C@@H]1C[C@@H](n2ccc3c(N[C@H]4CCc5ccccc54)ncnc32)C[C@@H]1O [MLN4924] + O=C(CCCCCCC(=O)Nc1ccccc1)NO [Vorinostat] (partner 1 µM)
Summary of the method: as §1

| Cell Line | relative viability (MLN4924 + Crizotinib; first compound 0.04 µM) | relative viability (MLN4924 + Crizotinib; first compound 0.1265 µM) | relative viability (MLN4924 + Crizotinib; first compound 0.4 µM) | relative viability (MLN4924 + Crizotinib; first compound 1.265 µM) | relative viability (MLN4924 + Crizotinib; first compound 4 µM) | relative viability (GSK126 + Tozasertib; first compound 0.08 µM) | relative viability (GSK126 + Tozasertib; first compound 0.253 µM) | relative viability (GSK126 + Tozasertib; first compound 0.8 µM) | relative viability (GSK126 + Tozasertib; first compound 2.53 µM) | relative viability (GSK126 + Tozasertib; first compound 8 µM) | relative viability (Carboplatin + OSI-027; first compound 0.08 µM) | relative viability (Carboplatin + OSI-027; first compound 0.253 µM) | relative viability (Carboplatin + OSI-027; first compound 0.8 µM) | relative viability (Carboplatin + OSI-027; first compound 2.53 µM) | relative viability (Carboplatin + OSI-027; first compound 8 µM) | relative viability (MLN4924 + Vorinostat; first compound 0.04 µM) | relative viability (MLN4924 + Vorinostat; first compound 0.1265 µM) | relative viability (MLN4924 + Vorinostat; first compound 0.4 µM) | relative viability (MLN4924 + Vorinostat; first compound 1.265 µM) | relative viability (MLN4924 + Vorinostat; first compound 4 µM) |
| --- | --- | --- | --- | --- | --- | --- | --- | --- | --- | --- | --- | --- | --- | --- | --- | --- | --- | --- | --- | --- |
| LC-2-ad | 0.517 | 0.419 | 0.341 | 0.264 | 0.156 | 0.43 | 0.472 | 0.428 | 0.458 | 0.419 | 0.877 | 0.825 | 0.778 | 0.696 | 0.404 | 0.612 | 0.63 | 0.508 | 0.214 | 0.202 |
| ABC-1 | 0.901 | 0.29 | 0.132 | 0.0913 | 0.223 | 0.159 | 0.135 | 0.217 | 0.167 | 0.17 | 0.551 | 0.509 | 0.547 | 0.335 | 0.299 | 0.946 | 1.15 | 0.572 | 0.279 | 0.363 |
| NCI-H647 | 0.925 | 0.665 | 0.197 | 0.0313 | 0.0474 | 0.375 | 0.268 | 0.288 | 0.282 | 0.126 | 0.724 | 0.637 | 0.692 | 0.57 | 0.575 | 0.414 | 0.391 | 0.0893 | 0.0464 | 0.0578 |
| NCI-H1734 | 0.688 | 0.622 | 0.305 | 0.121 | 0.131 | 0.322 | 0.235 | 0.295 | 0.224 | 0.283 | 0.707 | 0.674 | 0.63 | 0.528 | 0.572 | 0.792 | 0.565 | 0.208 | 0.132 | 0.113 |
| LOU-NH91 | 0.706 | 0.743 | 0.652 | 0.489 | 0.398 | 0.741 | 0.66 | 0.661 | 0.685 | 0.631 | 0.811 | 0.72 | 0.75 | 0.761 | 0.73 | 0.581 | 0.938 | 0.661 | 0.475 | 0.506 |
| NCI-H441 | 0.866 | 0.693 | 0.361 | 0.158 | 0.169 | 0.68 | 0.571 | 0.567 | 0.545 | 0.461 | 0.715 | 0.668 | 0.767 | 0.696 | 0.451 | 0.859 | 0.733 | 0.576 | 0.158 | 0.152 |
| RERF-LC-KJ | 0.786 | 0.471 | 0.225 | 0.221 | 0.207 | 0.562 | 0.449 | 0.489 | 0.485 | 0.357 | 0.585 | 0.639 | 0.541 | 0.464 | 0.343 | 0.579 | 0.328 | 0.205 | 0.192 | 0.236 |
| H3255 | 0.77 | 0.668 | 0.341 | 0.242 | 0.247 | 0.704 | 0.65 | 0.74 | 0.614 | 0.466 | 0.591 | 0.513 | 0.529 | 0.519 | 0.488 | 0.668 | 0.642 | 0.334 | 0.239 | 0.304 |
| A-427 | 0.4 | 0.239 | 0.243 | 0.149 | 0.182 | 0.227 | 0.245 | 0.189 | 0.226 | 0.162 | 0.449 | 0.531 | 0.479 | 0.499 | 0.39 | 0.546 | 0.403 | 0.309 | 0.231 | 0.237 |
